Laboratory results: US10231453B2, “5-substituted imidazole derivatives” (BAYER CROPSCIENCE AKTIENGESELLSCHAFT, priority 2015, dated 2019)

Columns and labels:
Septoria tritici = test: In vivo preventive test on Septoria tritici (leaf spot on wheat), Examples E, Q3 and R5; settings: Zymoseptoria tritici, 576 h, 500 ppm of active ingredient; wheat, preventive spray, evaluated 24 days after inoculation; read-out: efficacy
Uromyces appendiculatus = test: In vivo preventive test on Uromyces appendiculatus (bean rust), Examples G and R7; settings: 264 h, 500 ppm of active ingredient, bean, preventive spray, evaluated 11 days after inoculation, read-out: efficacy
[1] = tested on: Blumeria graminis fsp. hordei; test: In vivo preventive Blumeria test (barley), Example K; settings: 168 h, 500 ppm of active ingredient, preventive spray, evaluated 7 days after inoculation, read-out: efficacy
Description: After the spray coating has been dried, the plants are dusted with spores of Blumeria graminis fsp. hordei.

Puccinia recondita = test: In vivo preventive test on Puccinia recondita (brown rust on wheat), Examples C and R3; settings: Puccinia recondita, 264 h; 500 ppm of active ingredient; wheat, preventive spray, evaluated 11 days after inoculation; read-out: efficacy
Pyricularia oryzae = test: whole plant or invertebrate; type: in vivo; settings: 192 h, read-out: efficacy
[2] = Measurement of LogP values by HPLC on reversed phase columns (EEC directive 79/831 Annex V.A8); type: physicochemical; settings: method [a]: LC-UV, acidic range, 0.1% formic acid in water and acetonitrile as eluent; Table 1
Procedure: Measurement of Log P values was performed as outlined above.

Sphaerotheca fuliginea = test: In vivo preventive test on Sphaerotheca fuliginea (powdery mildew on cucurbits), Examples F and R6; settings: Podosphaera fuliginea, 360 h; 500 ppm of active ingredient; gherkin, preventive spray, evaluated 15 days after inoculation; read-out: efficacy
Pyrenophora teres = test: In vivo preventive test on Pyrenophora teres (net blotch on barley), Examples D, Q2 and R4; settings: Pyrenophora teres, 336 h, 500 ppm of active ingredient, preventive spray, evaluated 14 days after inoculation, read-out: efficacy
Phakopsora pachyrhizi = test: In vivo preventive Phakopsora test (soybeans), Example I; settings: 168 h, 100 ppm of active ingredient, preventive spray, evaluated 7 days after inoculation, read-out: efficacy
Venturia inaequalis = test: In vivo preventive Venturia test (apples), Example J; settings: 240 h, read-out: efficacy
Procedure: After the spray coating has dried on, the plants are inoculated with an aqueous conidia suspension of the causal agent of apple scab (Venturia inaequalis) and then remain for 1 day in an incubation cabinet at approximately 20° C. and a relative atmospheric humidity of 100%.
The plants are then placed in a greenhouse at approximately 21° C. and a relative atmospheric humidity of approximately 90%.
The test is evaluated 10 days after the inoculation.

Alternaria solani = test: In vivo preventive Alternaria test (tomatoes), Example H; settings: 72 h, 100 ppm of active ingredient, preventive spray, evaluated 3 days after inoculation, read-out: efficacy
Botrytis cinerea = test: In vivo preventive test on Botrytis cinerea (grey mould) on gherkin, Examples B, Q1 and R2; settings: Botrytis cinerea, 500 ppm of active ingredient, preventive spray, evaluated 4 to 5 days after inoculation, read-out: efficacy
Fusarium graminearum = test: whole plant or invertebrate; type: in vivo; settings: in Hordeum vulgare, 120 h, read-out: efficacy
Alternaria brassicae = test: In vivo preventive test on Alternaria brassicae (leaf spot on radish), Examples A and R1; settings: Alternaria brassicae, 144 h, 500 ppm of active ingredient, preventive spray, evaluated 6 days after inoculation, read-out: efficacy

SMILES	pest or weed control at 500 ppm (Septoria tritici) [%]	pest or weed control at 500 ppm (Uromyces appendiculatus) [%]	pest or weed control at 500 ppm [1] [%]	pest or weed control at 500 ppm (Puccinia recondita) [%]	pest or weed control at 500 ppm (Pyricularia oryzae) [%]	chromatographic logP [2]	pest or weed control at 500 ppm (Sphaerotheca fuliginea) [%]	pest or weed control at 500 ppm (Pyrenophora teres) [%]	pest or weed control at 100 ppm (Phakopsora pachyrhizi) [%]	pest or weed control at 100 ppm (Venturia inaequalis) [%]	pest or weed control at 100 ppm (Alternaria solani) [%]	pest or weed control at 500 ppm (Botrytis cinerea) [%]	pest or weed control at 500 ppm (Fusarium graminearum) [%]	pest or weed control at 500 ppm (Alternaria brassicae) [%]
N#Cc1cncn1CC(O)(Cc1ccncc1C(F)(F)F)C1(Cl)CC1 (stereo not shown) [Example I-92]	90 to 100	90 to 100	90 to 100	80 to 89	80 to 89	2.18	90 to 100	–	–	–	–	–	–	–
N#Cc1cncn1CC(O)(Cc1ccc(F)c(Cl)c1F)C1(Cl)CC1 (stereo not shown) [Example I-101]	90 to 100	90 to 100	90 to 100	90 to 100	–	3.17	90 to 100	90 to 100	90 to 100	80 to 89	90 to 100	–	–	–
Cc1ccc(CC(O)(Cn2cncc2C#N)C2(Cl)CC2)c(F)c1 (stereo not shown) [Example I-107]	90 to 100	80 to 89	–	80 to 89	–	2.97	90 to 100	90 to 100	80 to 89	80 to 89	90 to 100	90 to 100	–	–
OC(Cc1ccc(F)cc1F)(Cn1cncc1Cl)C1(Cl)CC1 (stereo not shown) [Example I-126]	90 to 100	90 to 100	90 to 100	90 to 100	90 to 100	–	90 to 100	90 to 100	90 to 100	–	90 to 100	90 to 100	90 to 100	–
CC1(C(O)(Cc2cccc(F)c2F)Cn2cncc2C#N)CC1 (stereo not shown) [Example I-144]	90 to 100	90 to 100	90 to 100	90 to 100	70 to 79	2.75	90 to 100	90 to 100	–	–	–	90 to 100	90 to 100	–
Cc1cc(F)ccc1CC(O)(Cn1cncc1C#N)C1(Cl)CC1 (stereo not shown) [Example I-153]	90 to 100	90 to 100	–	90 to 100	–	–	90 to 100	80 to 89	90 to 100	80 to 89	90 to 100	–	–	–
Cc1cc(F)ccc1CC(O)(Cn1cncc1Cl)C1(Cl)CC1 (stereo not shown) [Example I-155]	90 to 100	90 to 100	–	80 to 89	–	2.46	90 to 100	70 to 79	90 to 100	90 to 100	90 to 100	90 to 100	–	70 to 79
N#Cc1cncn1CC(O)(Cc1cc(F)cc(F)c1)C1(Cl)CC1 (stereo not shown) [Example I-156]	90 to 100	90 to 100	90 to 100	90 to 100	–	2.86	90 to 100	80 to 89	–	–	–	–	80 to 89	–
OC(Cc1ccc(F)cc1)(Cn1cncc1Cl)C1(Cl)CC1 (stereo not shown) [Example I-158]	90 to 100	90 to 100	–	80 to 89	–	2.13	90 to 100	90 to 100	90 to 100	–	90 to 100	90 to 100	–	–
N#Cc1cncn1CC(O)(Cc1cc(F)ncc1Cl)C1(Cl)CC1 (stereo not shown) [Example I-165]	90 to 100	90 to 100	90 to 100	90 to 100	90 to 100	2.38	90 to 100	–	–	–	–	–	–	–
